Measured values: US9907479B2, “Contribution of oxidative stress to AF electrograms” (NORTHWESTERN UNIVERSITY, priority 2013, dated 2018)

What was measured:
AF EGMs in a RAP model = experiment: Acute ROS blockade in rapid atrial pacing (RAP) persistent AF model, AF EGM mapping; format: in vivo, dog
Method: RAP: In 2 animals, rapid atrial pacing was performed at 600 bpm for 3-4 weeks to induce persistent AF. Apocynin was given as in HF above.

AF EGMs in HF [1] = experiment: EGM-guided targeted gene injection at ROS responsive PLA quadrant in HF dog, AF EGM mapping; format: in vivo; conditions: one HF dog, given during AF, 10 mg/kg, before gene injection
Method: In one dog, HF was induced by RV pacing at 240 bpm×3 weeks. AF was then induced and recorded in the PLA by high density epicardial plaques (130 electrodes; […]). […] Real time analysis of AF EGMs was performed. The PLA was divided into 4 equal quadrants as shown in FIG. 15A and AF characteristics analyzed for each quadrant. […] One week later, AF mapping was performed again, in the absence and presence of apocynin. […] NOX2 expression (assessed by RT-PCR) was 70% lower in the injected quadrant than in neighboring, un-injected PLA.

AF EGMs in HF [2] = experiment: Acute ROS blockade during induced AF in pacing-induced HF dogs, epicardial AF EGM mapping; format: in vivo, dog; conditions: for effect on AF EGM parameters (DF, OI, FI, ShEn): apocynin 10 mg/kg
Method: HF: In 4 animals, rapid RV pacing was performed at 240 beats/min for 3-4 weeks to induce HF. AF was then induced and AF EGMs recorded by an epicardial, multielectrode plaque (130 electrodes; […]). Apocynin (an NAPDH oxidase inhibitor) was then given (10 mg/kg) acutely. After apocynin administration, AF slowed and then terminated within 5 minutes (in every experiment). […] After apocynin washout (90 minutes), AF was re-induced and mito-TEMPO was given (0.7 mg/kg). […] The atrial tissue was then removed and examined for O^2- generation using lucigenin chemiluminescence. […] Thus, AF EGMs in HF are very sensitive to acute blockade of NADPH oxidase and mitochondrial ROS and AF EGM organization in response to ROS blockade closely correlates with the amount of O^2- in underlying tissue.

[3] = RAP dogs (600 bpm, 3-4 weeks), persistent AF, apocynin given as in HF
[4] = HF dogs, induced AF, mito-TEMPO 0.7 mg/kg

SMILES	change in DF (AF EGMs in a RAP model; [3])	change in OI (AF EGMs in a RAP model; [3])	termination of AF (AF EGMs in a RAP model; RAP dogs, 2 animals)	effect on AF (AF EGMs in HF [1])	time to AF termination after administration (AF EGMs in HF [2]; HF dogs (RV pacing 240 beats/min, 3-4 weeks), induced AF, 10 mg/kg given acutely, in every experiment)	effect on AF EGM parameters (DF, OI, FI, ShEn) (AF EGMs in HF [2]; [4])	effect on AF (slowing, termination) (AF EGMs in HF [2]; HF dogs, AF re-induced after apocynin washout (90 minutes), mito-TEMPO 0.7 mg/kg)
COc1cc(C(C)=O)ccc1O [apocynin, Apocynin]	significant decrease	increase	In one animal, there was termination of AF	organization of AF followed by AF termination	≤ 5 min	organization of all AF EGM parameters	–
CC1(C)CC(NC(=O)C[P+](c2ccccc2)(c2ccccc2)c2ccccc2)CC(C)(C)N1[O] [mito-TEMPO]	–	–	–	–	–	organization of all AF EGM parameters	gradual slowing and termination of AF in every animal
